The values below come from patent US20230106506A1, “NOVEL PqsR INVERSE AGONISTS” (Helmholtz-Zentrum Fur Infektionsforschung GmbH, priority 2020, published 2023).

For series [1], the system named is production of signal molecules HHQ and PQS. The following applies: cited from earlier work.
Series [2] concerns P. aeruginosa pyocyanin production. Conditions: in cellulo, literature value; read-out: inhibition of virulence factor pyocyanin production: IC50; cited from earlier work.
Series [3] has as its system virulence factor elastase. The following applies: cited from earlier work.
The test system of series [4] is P. aeruginosa pyocyanin production. Nature of the series: Pyocyanin assay. The format is cell-based, P. aeruginosa strain PA14. The following applies: Pseudomonas aeruginosa, PA14, 16 h, read-out: IC50-value towards pyocyanin production. The procedure, abridged:
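PA14 washed overnight culture in PPGAS diluted to OD600 0.02, grown 16 h with compound (37 °C, 200 rpm, 75% RH). Pyocyanin extracted with chloroform, back-extracted into 0.2 M HCl. OD520 measured and normalised to OD600.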

The target in a further series is T1, PqsR (Pseudomonas aeruginosa, UniProt Q9I4X0).
T1 construct: transfected with pEAL08-2 plasmid encoding pqsR under control of promoter tac; expressed in transfected cells; host or cells: Escherichia coli DH5alpha carrying pEAL08-2
Nature of the series: PqsR reporter gene assay in E. coli (β-galactosidase). The series is classed as cell-based. As to the method: Inhibition of pqsR-dependent gene expression of test compounds was determined in an E. coli based β-galactosidase reporter gene assay. Escherichia coli DH5α was transfected with pEAL08-2 plasmid encoding pqsR under control of promoter tac and β-galactosidase reporter gene lacZ under control of promoter pqsA. Antagonistic effects of compounds were evaluated in the presence of/in competition to 50 nM PQS. A positive control was used to ensure the reliability of individual assays. First, PQS was diluted in methanol and added to the wells of a glass coated 96-deep-well plate, and the solvent was evaporated. Then, compounds were added in 5 μL DMSO to final concentrations of 0.001-10 μM. Overnight cultures of E. coli DH5a×pEAL08-2 were diluted 1:100 in LB medium with ampicillin (50 μg/ml) and incubated at 37° C. with shaking until it reached an OD600 of 0.2. Finally, 995 μL of culture was added to each well and the β-galactosidase activity was determined by ortho-nitrophenyl-β-galactoside conversion in permeabilized cells after a 2.5 h incubation period (37° C., 180 rpm). OD600, OD420, and OD550 were measured using POLARstar Omega (BMG Labtech, Ortenberg, Germany), and the activity was expressed as ratio of the slope of β-galactosidase activity between basal control (no PQS) and solvent control, IC50 values of antagonists were determined by variation of the concentration of the test compounds.

Series [5] is described as follows: Kinetic turbidimetric aqueous solubility. The format is physicochemical. Conditions: aqueous buffer, kinetic from dmso stock; PBS buffer, final DMSO 2%, absorbance 620 nm; read-out: Kinetic Turbidimetric Aqueous Solubility at room temperature for 5 min. The method, then: Kinetic Turbidimetric Aqueous Solubility at room temperature for 5 min. […] Data was analyzed by fitting a four parameter sigmoidal function to the measured and normalized absorbances and AUC calculation providing access to Log S (decadic logarithm of the solubility).

Series [6] can be described thus: Metabolic stability in mouse liver microsomes (MLM). The following applies: 1 μM compound, 0.5 mg/mL MLM, 1 mM NADPH, 37° C., read-out: half-life (t1/2) towards MLM. The series is classed as in vitro ADME. The procedure, abridged: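 Phase I stability: 1 μM compound incubated at 37° C with 0.5 mg/mL mouse liver microsomes and 1 mM NADPH, sampled at 0-30 min and quenched in acetonitrile. Remaining parent measured by HPLC-MS/MS to derive half-life.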
Background: Microsomes from liver hold many membrane-bound enzymes, among them those of drug oxidation.

Like-named read-outs stand apart in the source and are kept apart here.

T1 sequence (Q9I4X0 whole entry): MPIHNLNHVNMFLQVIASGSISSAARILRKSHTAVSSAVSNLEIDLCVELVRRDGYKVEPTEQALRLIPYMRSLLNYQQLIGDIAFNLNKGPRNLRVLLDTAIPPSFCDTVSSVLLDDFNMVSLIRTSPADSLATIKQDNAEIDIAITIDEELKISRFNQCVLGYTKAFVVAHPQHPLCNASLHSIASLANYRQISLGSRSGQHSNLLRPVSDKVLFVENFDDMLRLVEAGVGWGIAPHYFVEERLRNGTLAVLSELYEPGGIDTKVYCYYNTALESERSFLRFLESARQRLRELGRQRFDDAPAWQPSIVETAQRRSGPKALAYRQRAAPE

Turning to `CCCCCCCc1[nH]c2ccc([N+](=O)[O-])cc2c(=O)c1C(N)=O` [2-heptyl-6-nitro-4-oxo-1,4-dihydroquinoline-3-carboxamide], in series [1] (at 15 μM), the “reduction of HHQ production” value is given as 54% and the “reduction of PQS production” value was 37%. Moreover, the IC50 in series [2] is 2000 nM.
As to `COC(=O)c1ccccc1N` [methyl anthranilate], the “inhibition of production of the virulence factor elastase, active concentration” value in series [3] is given as “millimolar concentrations”. Further, in series [1], the “inhibition of PQS formation, active concentration” value was “millimolar concentrations”.
In the case of `Nc1cccc(F)c1C(=O)O` [Compound 6FABA], the IC50 in series [1] (QS inhibitor targeting the enzyme PqsA) is roughly 100000 nM.
As for `Cn1cc(-c2cc(NCc3cn(-c4ccc(Oc5ccccc5)cc4)nn3)cc(C(F)(F)F)n2)cn1` [Compound 10, 2-(1-Methyl-1H-pyrazol-4-yl)-N-((1-(4-phenoxyphenyl)-1H-1,2,3-triazol-4-yl)methyl)-6-(trifluoromethyl)pyridin-4-amine], the figures for the IC50 (in series [4]; against PqsR) were 201 to 500 nM and no more than 50 nM, respectively. For the same compound, in series [5], the solubility at 5 min was greater than 25 µM. For the same compound, the half-life at 1 µM in series [6] was in the range of 30 to 60 min.
For `Fc1ccccc1Oc1ccc(-n2cc(CNc3cc(-c4cn[nH]c4)nc(C(F)(F)F)c3)nn2)cc1` [Compound 04, N-((1-(4-(2-Fluorophenoxy)phenyl)-1H-1,2,3-triazol-4-yl)methyl)-2-(1H-pyrazol-4-yl)-6-(trifluoromethyl)pyridin-4-amine], the IC50 in series [4] is 101 to 200 nM; at PqsR it was no more than 50 nM. Also, the solubility at 5 min in series [5] was greater than 10 µM. The half-life at 1 µM in series [6] lay in the range of 30 to 60 min.

What is called IC50 is the concentration at which inhibition is half-maximal. Usually solubility stands for the dissolved amount per volume that the medium holds.
